Data published in the supplement of paper PMC10307832.

Tests used:
Experiment in all cases: relative viability (nuclei count vs DMSO), 5 days (fraction); higher = more cells survive
[1] = compound: CCN1C(=O)C2=CC(=C(N=C2N(C1=O)C3CC3)N)C(=O)N
Summary of the method: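 Five library-drug doses spaced by √10 were pinned onto vehicle-anchored 1536-well plates of lung cancer cell lines that had been kept overnight at 37 °C. Cells went 5 days without medium change, then were fixed, permeabilised and Hoechst-stained together, imaged at 4× and counted by MetaXpress. Viability is the ratio of treated-well to vehicle-well nuclei, taken as a median over plates. Plates required control CV below 25% and at least one doubling.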

[2] = compound: CCN1C(=O)C2=CC(=C(N=C2N(C1=O)C3CC3)N)C(=O)N + CC(C)C[C@H](NC(=O)[C@H](Cc1ccccc1)NC(=O)c1cnccn1)B(O)O [Bortezomib] (partner 0.002 µM)
Summary of the method: (§1)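 Values are medians from duplicate plates. Each reflects relative viability, defined as the nuclei count of treated wells over that of vehicle wells. Lung cancer cell lines in 1536-well plates were pin-tool dosed one day after seeding with one drug alone or with a fixed anchor-drug dose plus five library-drug doses (not always all listed) in √10 steps, then fixed, stained and imaged at 4× after 5 days.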

[3] = compound: CCN1C(=O)C2=CC(=C(N=C2N(C1=O)C3CC3)N)C(=O)N + CC1(C)CCC(c2ccc(Cl)cc2)=C(CN2CCN(c3ccc(C(=O)NS(=O)(=O)c4ccc(N[C@H](CCN5CCOCC5)CSc5ccccc5)c(S(=O)(=O)C(F)(F)F)c4)cc3)CC2)C1 [Navitoclax] (partner 0.5 µM)
Summary of the method: as §1

[4] = compound: CCN1C(=O)C2=CC(=C(N=C2N(C1=O)C3CC3)N)C(=O)N + COc1cc2c(Oc3ccc(NC(=O)C4(C(=O)Nc5ccc(F)cc5)CC4)cc3F)ccnc2cc1OCCCN1CCOCC1 [Foretinib] (partner 0.25 µM)
Summary of the method: as §1

[5] = compound: CCN1C(=O)C2=CC(=C(N=C2N(C1=O)C3CC3)N)C(=O)N + CS(=O)(=O)CCNCc1ccc(-c2ccc3ncnc(Nc4ccc(OCc5cccc(F)c5)c(Cl)c4)c3c2)o1 [Lapatinib] (partner 2 µM)
Summary of the method: as §1

[6] = compound: CCN1C(=O)C2=CC(=C(N=C2N(C1=O)C3CC3)N)C(=O)N + CS(=O)(=O)N1CCN(Cc2cc3nc(-c4cccc5[nH]ncc45)nc(N4CCOCC4)c3s2)CC1 [Pictilisib] (partner 1 µM)
Summary of the method: as §1

[7] = compound: CCN1C(=O)C2=CC(=C(N=C2N(C1=O)C3CC3)N)C(=O)N + C[C@@H](Oc1cc(-c2cnn(C3CCNCC3)c2)cnc1N)c1c(Cl)ccc(F)c1Cl [Crizotinib] (partner 1 µM)
Summary of the method: as §1

[8] = compound: CCN1C(=O)C2=CC(=C(N=C2N(C1=O)C3CC3)N)C(=O)N + C[C@]1(O)C[C@@H](c2nc(-c3ccc4ccc(-c5ccccc5)nc4c3)c3c(N)nccn32)C1 [Linsitinib] (partner 1 µM)
Summary of the method: as §1

[9] = compound: CCN1C(=O)C2=CC(=C(N=C2N(C1=O)C3CC3)N)C(=O)N + Cc1nc(NC(=O)N2CCC[C@H]2C(N)=O)sc1-c1ccnc(C(C)(C)C(F)(F)F)c1 [Alpelisib] (partner 2 µM)
Summary of the method: as §1

[10] = compound: CCN1C(=O)C2=CC(=C(N=C2N(C1=O)C3CC3)N)C(=O)N + O=C(c1cc(Cc2n[nH]c(=O)c3ccccc23)ccc1F)N1CCN(C(=O)C2CC2)CC1 [Olaparib] (partner 8 µM)
Summary of the method: as §1

Work on Calu-6 yielded a relative viability ([1]; 0.253 µM) of 0.963, a relative viability ([1]; 0.8 µM) of 1.01 and a relative viability ([1]; 2.53 µM) of 0.902. For the same cell line, the relative viability ([1]; 8 µM) was 0.905, the relative viability ([2]; first compound 0.253 µM) was 1 and the relative viability ([2]; first compound 0.8 µM) was 0.954. The relative viability ([2]; first compound 2.53 µM) was 1.02, the relative viability ([2]; first compound 8 µM) was 0.958 and the relative viability ([3]; first compound 0.253 µM) was 0.828. The relative viability ([3]; first compound 0.8 µM) was 0.822, the relative viability ([3]; first compound 2.53 µM) was 0.826 and the relative viability ([3]; first compound 8 µM) was 0.883. It also gave a relative viability ([4]; first compound 0.253 µM) of 0.892, a relative viability ([4]; first compound 0.8 µM) of 0.809 and a relative viability ([4]; first compound 2.53 µM) of 0.845. It also gave a relative viability ([4]; first compound 8 µM) of 0.803, a relative viability ([5]; first compound 0.253 µM) of 1.06 and a relative viability ([5]; first compound 0.8 µM) of 1.05. It also gave a relative viability ([5]; first compound 2.53 µM) of 0.957, a relative viability ([5]; first compound 8 µM) of 0.997 and a relative viability ([6]; first compound 0.253 µM) of 0.925. For the same cell line, the relative viability ([6]; first compound 0.8 µM) was 0.819, the relative viability ([6]; first compound 2.53 µM) was 0.923 and the relative viability ([6]; first compound 8 µM) was 1. For the same cell line, the relative viability ([7]; first compound 0.253 µM) was 0.808, the relative viability ([7]; first compound 0.8 µM) was 0.81 and the relative viability ([7]; first compound 2.53 µM) was 0.721. For the same cell line, the relative viability ([7]; first compound 8 µM) was 0.805, the relative viability ([8]; first compound 0.253 µM) was 0.924 and the relative viability ([8]; first compound 0.8 µM) was 0.946. It also gave a relative viability ([8]; first compound 2.53 µM) of 0.869, a relative viability ([8]; first compound 8 µM) of 0.866 and a relative viability ([9]; first compound 0.253 µM) of 1.03. For the same cell line, the relative viability ([9]; first compound 0.8 µM) was 0.876, the relative viability ([9]; first compound 2.53 µM) was 0.866 and the relative viability ([9]; first compound 8 µM) was 0.925. For the same cell line, the relative viability ([10]; first compound 0.253 µM) was 0.554, the relative viability ([10]; first compound 0.8 µM) was 0.573 and the relative viability ([10]; first compound 2.53 µM) was 0.582. The relative viability ([10]; first compound 8 µM) was 0.566.
EBC-1 showed a relative viability ([1]; 0.253 µM) of 0.932, a relative viability ([1]; 0.8 µM) of 1.02 and a relative viability ([1]; 2.53 µM) of 0.979. The relative viability ([1]; 8 µM) was 1.03, the relative viability ([2]; first compound 0.253 µM) was 0.496 and the relative viability ([2]; first compound 0.8 µM) was 0.5. The relative viability ([2]; first compound 2.53 µM) was 0.489, the relative viability ([2]; first compound 8 µM) was 0.61 and the relative viability ([3]; first compound 0.253 µM) was 0.441. The relative viability ([3]; first compound 0.8 µM) was 0.43, the relative viability ([3]; first compound 2.53 µM) was 0.451 and the relative viability ([3]; first compound 8 µM) was 0.378. The relative viability ([4]; first compound 0.253 µM) was 0.105, the relative viability ([4]; first compound 0.8 µM) was 0.114 and the relative viability ([4]; first compound 2.53 µM) was 0.104. The relative viability ([4]; first compound 8 µM) was 0.119, the relative viability ([5]; first compound 0.253 µM) was 0.186 and the relative viability ([5]; first compound 0.8 µM) was 0.204. The relative viability ([5]; first compound 2.53 µM) was 0.206, the relative viability ([5]; first compound 8 µM) was 0.211 and the relative viability ([6]; first compound 0.253 µM) was 0.35. For the same cell line, the relative viability ([6]; first compound 0.8 µM) was 0.352, the relative viability ([6]; first compound 2.53 µM) was 0.335 and the relative viability ([6]; first compound 8 µM) was 0.494. It also gave a relative viability ([7]; first compound 0.253 µM) of 0.163, a relative viability ([7]; first compound 0.8 µM) of 0.184 and a relative viability ([7]; first compound 2.53 µM) of 0.208. It also gave a relative viability ([7]; first compound 8 µM) of 0.218, a relative viability ([8]; first compound 0.253 µM) of 0.851 and a relative viability ([8]; first compound 0.8 µM) of 0.938. It also gave a relative viability ([8]; first compound 2.53 µM) of 0.808, a relative viability ([8]; first compound 8 µM) of 0.886 and a relative viability ([9]; first compound 0.253 µM) of 0.84. The relative viability ([9]; first compound 0.8 µM) was 0.77, the relative viability ([9]; first compound 2.53 µM) was 0.78 and the relative viability ([9]; first compound 8 µM) was 0.834. It also gave a relative viability ([10]; first compound 0.253 µM) of 0.7, a relative viability ([10]; first compound 0.8 µM) of 0.695 and a relative viability ([10]; first compound 2.53 µM) of 0.618. For the same cell line, the relative viability ([10]; first compound 8 µM) was 0.777.
With NCI-H1299 the relative viability ([1]; 0.253 µM) was 1.02, the relative viability ([1]; 0.8 µM) was 1.02 and the relative viability ([1]; 2.53 µM) was 0.986. The relative viability ([1]; 8 µM) was 0.976, the relative viability ([2]; first compound 0.253 µM) was 1.01 and the relative viability ([2]; first compound 0.8 µM) was 1.01. It also gave a relative viability ([2]; first compound 2.53 µM) of 1, a relative viability ([2]; first compound 8 µM) of 0.999 and a relative viability ([3]; first compound 0.253 µM) of 1.07. It also gave a relative viability ([3]; first compound 0.8 µM) of 1.06, a relative viability ([3]; first compound 2.53 µM) of 1.04 and a relative viability ([3]; first compound 8 µM) of 1.01. It also gave a relative viability ([4]; first compound 0.253 µM) of 1.16, a relative viability ([4]; first compound 0.8 µM) of 1.1 and a relative viability ([4]; first compound 2.53 µM) of 1.08. The relative viability ([4]; first compound 8 µM) was 1.05, the relative viability ([5]; first compound 0.253 µM) was 1.06 and the relative viability ([5]; first compound 0.8 µM) was 0.978. For the same cell line, the relative viability ([5]; first compound 2.53 µM) was 0.933, the relative viability ([5]; first compound 8 µM) was 0.947 and the relative viability ([6]; first compound 0.253 µM) was 0.879. For the same cell line, the relative viability ([6]; first compound 0.8 µM) was 0.81, the relative viability ([6]; first compound 2.53 µM) was 0.701 and the relative viability ([6]; first compound 8 µM) was 0.962. The relative viability ([7]; first compound 0.253 µM) was 1, the relative viability ([7]; first compound 0.8 µM) was 0.914 and the relative viability ([7]; first compound 2.53 µM) was 0.924. The relative viability ([7]; first compound 8 µM) was 0.966, the relative viability ([8]; first compound 0.253 µM) was 0.991 and the relative viability ([8]; first compound 0.8 µM) was 0.98. The relative viability ([8]; first compound 2.53 µM) was 0.93, the relative viability ([8]; first compound 8 µM) was 0.982 and the relative viability ([9]; first compound 0.253 µM) was 1.01. For the same cell line, the relative viability ([9]; first compound 0.8 µM) was 1.15, the relative viability ([9]; first compound 2.53 µM) was 1.05 and the relative viability ([9]; first compound 8 µM) was 1.08. It also gave a relative viability ([10]; first compound 0.253 µM) of 0.922, a relative viability ([10]; first compound 0.8 µM) of 0.956 and a relative viability ([10]; first compound 2.53 µM) of 0.918. The relative viability ([10]; first compound 8 µM) was 0.942.
